# According to patent US4298734A, “Diazaheterocyclopurines and triazolopyrimidines” (Mead Johnson & Company, priority 1979, dated 1981):
# Key:
# [1] = tested on: methacholine-induced bronchospasm in the rat; assay: Methacholine-induced bronchospasm (pulmonary ventilation pressure) in anesthetized rat; type: in vivo; settings: intraduodenal; for ED50 / Methacholine Bronchospasm, ED50: 50% inhibition of bronchospasm; for inhibition in vivo at 10 mg/kg: read-out: Methacholine Bronchospasm, percent inhibition; for Methacholine Bronchospasm, percent inhibition: dose 30 mg./kg.; for inhibition in vivo at 10 mg/kg / Methacholine Bronchospasm, inactive at dose: dose 10 mg./kg.
# Excerpt: Brochodilator activity in vivo (Table XI, column 6) was estimated by determining the dose of test compound required to inhibit methacholine-induced brochospasm in the rat. […] For this test, pulmonary ventilation pressure (PVP) was the parameter measured using anesthetized animals.
# [2] = tested on: passive cutaneous anaphylaxis reaction (PCA) in the rat; assay: Passive cutaneous anaphylaxis reaction (PCA) in the rat; type: in vivo; design: key to PCA, inactive at dose: I: inactive at the specified dose; settings: for PCA, ED50 / ED50: oral; for inhibition in vivo at 50 mg/kg: oral dose 50 mg./kg.
# Description: Antiallergy activity in terms of ability to inhibit the immediate hypersensitivity reaction was measured by means of the passive cutaneous anaphylaxis reaction (PCA) in the rat (Table XI, column 7). The animals were passively sensitized by the intradermal injection of rat reagenic antiserum at various locations on the shaved back skin and 48 hours later the test drug was administered. This was followed by challenge at a predetermined interval, usually 15 minutes, by intravenous injection of egg albumin and Evans' blue dye. The dermal reaction at the sensitized site was evaluated and scored by measuring the diameter of the spot generated at the sensitized intradermal injection site. The values reported in the table are either ED50 values for the test compound in terms of mg./kg. of body weight administered orally, or percent inhibition of the dose specified in parentheses.
# [3] = Anticholinergic action mediating bronchodilator activity
# [4] = tested on: rats actively sensitized with egg albumin and B. pertussis vaccine; assay: Allergic bronchospasm in rats actively sensitized with egg albumin; type: in vivo; settings: rat, oral, egg albumin challenge, PVP; for ED50: Bordetella pertussis
# Description: Antiallergy/bronchodilator studies (Table XI, column 8) were also conducted using rats which were actively sensitized with egg albumin and B. pertussis vaccine as for preparation of the reagenic antisera in the PCA test. Fifteen days following sensitization, the animals were prepared for measurement of PVP as for the methacholine-induced bronchospasm test, and changes in PVP in response to a standardized challenge of egg albumin following treatment with test drug were measured. The values reported in the table are ED50 values in terms of mg./kg. of body weight for the test compound administered orally.
# [5] = Anti-allergy and bronchodilator action compared with aminophylline
# [6] = Maximum non-toxic dose in mice; settings: mouse, in vivo, po; per os in mice
# Excerpt: Compounds of Formula I and Formula II are useful as bronchodilators, antiallergy agents in the inhibition of the immediate hypersensitivity reaction, as vasodilators, and as inhibitors of the enzyme phosphodiesterase. The invention includes processes for the treatment of mammals requiring bronchodilation, vasodilation, or having allergy with a non-toxic bronchodilator effective, vasodilator effective, or immediate hypersensitivity reaction inhibiting dose of one of these compounds. The compounds may be administered orally, parenterally, topically by inhalation, or rectally. Effective doses range from about 0.03 mg./kg. of body weight up to the maximum non-toxic dose which can be administered without undue side effects. Maximum non-toxic doses can be determined by standard pharmacologic techniques using mice. The value for the substance of Procedure 3 or 4, a preferred compound for anti-asthma use, is about 250 mg./kg. of body weight per os in mice.
# [7] = oral dose 10 mg./kg., read-out: PCA, percent inhibition
# [8] = oral dose 25 mg./kg., read-out: PCA, percent inhibition
# [9] = read-out: PCA, percent inhibition
structure (smiles),measurement,setting,value
Cc1nc2c(n1C)C(=O)N1CCN=C1N2Cc1ccc(Cl)cc1 [Procedure 117],ED50,[1],5.7 mg/kg
COc1ccc(CCN2C3=NCCN3C(=O)c3[nH]nnc32)cc1OC [Procedure 26],inhibition in vivo at 10 mg/kg,[2]; [7],41%
O=C1c2[nH]c(Br)nc2N(Cc2ccc(Cl)cc2)C2=NCCN12 [Procedure 17],inhibition in vivo at 25 mg/kg,[2]; [8],34%
CC(C)CN1C2=NC(C)CN2C(=O)c2[nH]cnc21 (stereo not shown) [Procedure 109],ED50,[1],4.6 mg/kg
O=C1c2[nH]cnc2N(CCOc2ccc(Cl)cc2)C2=NCCN12 [Procedure 57],inhibition in vivo at 10 mg/kg,[1],66%
same,inhibition in vivo at 25 mg/kg,[2]; [8],31.7%
O=c1c2[nH]cnc2n(Cc2ccc(Cl)cc2)c2nccn12 [Procedure 124],"Methacholine Bronchospasm, ED50",[1],8.1 mg/kg
Cc1nc2c([nH]1)C(=O)N1CCN=C1N2CCOc1ccccc1 [Procedure 58],ED50,[1],0.81 mg/kg
same,inhibition in vivo at 25 mg/kg,[2]; [8],29%
same,anticholinergic action,[3],anticholinergic action of a type which mediates improved bronchodilator activity
COc1ccc(CCN2C3=NCCN3C(=O)c3[nH]cnc32)cc1OC [Procedure 11],inhibition in vivo at 10 mg/kg,[2]; [7],25%
CC(C)C(=O)N1C2=NCCN2C(=O)c2[nH]c(C(C)C)nc21 [Procedure 20],inhibition in vivo at 25 mg/kg,[2]; [8],46%
N=C1c2[nH]cnc2N(Cc2ccc(Cl)cc2)C2=NCCN12 [Procedure 77],"Methacholine Bronchospasm, percent inhibition",[1],22%
O=C1c2[nH]cnc2N(Cc2ccccc2)C2=NCCN12 [Procedure 23],"PCA, inactive at dose",[2]; oral dose 25 mg./kg.,I
O=C1c2c(ncn2Cc2ccc(F)cc2)N(Cc2ccc(F)cc2)C2=NCCN12 [Procedure 44],inhibition in vivo at 10 mg/kg,[1],0%
same,"PCA, inactive at dose",[2]; oral dose 10 mg./kg.,I
CC1CN2C(=O)c3[nH]cnc3N(Cc3ccc(Cl)cc3)C2=N1 (racemic) [Procedure 100],"Methacholine Bronchospasm, ED50",[1],2.1 mg/kg
same,"PCA, ED50",[2],10.6 mg/kg
same,"Allergic Bronchospasm, ED50",[4],1.5 mg/kg
CC1(C)CN2C(=O)c3nc[nH]c3N(Cc3ccc(Cl)cc3)C2=N1 [Procedure 104],ED50,[1],6.3 mg/kg
same,ED50,[2],42.8 mg/kg
same,ED50,[4],3 mg/kg
same,anti-allergy and bronchodilator action relative to aminophylline,[5],more potent than aminophylline in anti-allergy and bronchodilator action
CC1N=C2N(Cc3ccc(Cl)cc3)c3nc[nH]c3C(=O)N2C1C (mixture of isomers) [106(mixed)],"Methacholine Bronchospasm, ED50",[1],3.7 mg/kg
same,"PCA, ED50",[2],20.3 mg/kg
same,"Allergic Bronchospasm, ED50",[4],3.51 mg/kg
"Cn1c(=O)c2[nH]cnc2n(C)c1=O [Theophylline, reference compound]",ED50,[1],19.2 mg/kg
same,ED50,[2],41.5 mg/kg
O=C1c2[nH]nnc2N(Cc2ccc(Cl)c(Cl)c2)C2=NCCN12 [Procedure 28],"PCA, inactive at dose",[2]; oral dose 10 mg./kg.,I
CCCCCCCCN1C2=NCCN2C(=O)c2[nH]c(C)nc21 [Procedure 55],inhibition in vivo at 25 mg/kg,[2]; [8],34.9%
O=C1c2[nH]nnc2N(Cc2ccc(F)cc2)C2=NCCN12 [Procedure 27],inhibition in vivo at 10 mg/kg,[1],30%
same,ED50,[2],17.7 mg/kg
CC(C)CN1C2=NCCN2C(=O)c2c1ncn2CCOc1ccccc1 [Procedure 39],inhibition in vivo at 10 mg/kg,[1],34.7%
same,"PCA, inactive at dose",[2]; oral dose 25 mg./kg.,I
O=C1c2[nH]cnc2N(CCc2ccc(Cl)cc2)C2=NCCN12 [Procedure 60],"Methacholine Bronchospasm, inactive at dose",[1],I
same,"PCA, inactive at dose",[2]; oral dose 25 mg./kg.,I
CCc1nc2c([nH]1)C(=O)N1CCN=C1N2Cc1ccc(Cl)cc1 [Procedure 14],inhibition in vivo at 10 mg/kg,[1],26%
same,inhibition in vivo at 50 mg/kg,[2]; [9],29%
O=C1c2[nH]cnc2N(CCOc2ccccc2)C2=NCCN12 [Procedure 12],ED50,[1],2.3 mg/kg
same,inhibition in vivo at 25 mg/kg,[2]; [8],27%
same,anticholinergic action,[3],anticholinergic action of a type which mediates improved bronchodilator activity
CC(C)CN1C2=NCCN2C(=O)c2[nH]cnc21 [Procedure 13],inhibition in vivo at 10 mg/kg,[1],63%
same,"PCA, inactive at dose",[2]; oral dose 25 mg./kg.,I
CC1CN2C(=O)c3c(ncn3C)N(Cc3ccc(Cl)cc3)C2=N1 (racemic) [Procedure 102],"Methacholine Bronchospasm, ED50",[1],1.1 mg/kg
same,"PCA, ED50",[2],28.9 mg/kg
same,"Allergic Bronchospasm, ED50",[4],3.4 mg/kg
O=C1c2[nH]cnc2N(CCCc2ccccc2)C2=NCCN12 [Procedure 62],inhibition in vivo at 10 mg/kg,[1],22%
same,"PCA, inactive at dose",[2]; oral dose 25 mg./kg.,I
O=C1c2[nH]cnc2N(Cc2ccc(Cl)cc2)C2=NCCN12 [Procedure 3],ED50,[1],5.2 mg/kg
same,ED50,[2],33.7 mg/kg
same,ED50,[4],2.9 mg/kg
same,MTD,[6],~250 mg/kg
Cn1cnc2c1C(=O)N1CCN=C1N2Cc1ccc(Cl)cc1 [Procedure 67],"Methacholine Bronchospasm, ED50",[1],8.8 mg/kg
same,"PCA, percent inhibition",[2]; oral dose 25 mg./kg.,26%
S=C1c2[nH]cnc2N(Cc2ccc(Cl)cc2)C2=NCCN12 [Procedure 75],"Methacholine Bronchospasm, percent inhibition",[1],21%
same,"PCA, inactive at dose",[2]; oral dose 25 mg./kg.,I
O=C1c2[nH]cnc2N(Cc2ccccc2Cl)C2=NCCN12 [Procedure 6],inhibition in vivo at 50 mg/kg,[2]; [9],25%
CC(C)c1nc2c([nH]1)C(=O)N1CCN=C1N2CCOc1ccccc1 [Procedure 108],ED50,[1],4 mg/kg
O=C1c2[nH]nnc2N(CCOc2ccccc2)C2=NCCN12 [Procedure 74],"Methacholine Bronchospasm, inactive at dose",[1],I
same,"PCA, inactive at dose",[2]; oral dose 25 mg./kg.,I
O=C1c2[nH]cnc2N(Cc2ccc(Cl)c(Cl)c2)C2=NCCN12 [Procedure 7],"PCA, inactive at dose",[2]; oral dose 25 mg./kg.,I
Cn1c(Br)nc2c1C(=O)N1CCN=C1N2Cc1ccc(Cl)cc1 [Procedure 46],ED50,[1],> 30 mg/kg
Cc1nc2c([nH]1)C(=O)N1CCN=C1N2CC(C)C [Procedure 63],ED50,[1],3.3 mg/kg
same,ED50,[2],33.9 mg/kg
same,ED50,[4],5.4 mg/kg
O=C1c2[nH]cnc2N(Cc2cccc(Cl)c2)C2=NCCN12 [Procedure 5],inhibition in vivo at 10 mg/kg,[1],64%
same,inhibition in vivo at 50 mg/kg,[2]; [9],43%
O=C1c2[nH]nnc2N(Cc2ccc(Cl)cc2)C2=NCCN12 [Procedure 25],"PCA, inactive at dose",[2]; oral dose 10 mg./kg.,I
CC1N=C2N(Cc3ccc(Cl)cc3)c3nc[nH]c3C(=O)N2C1C (stereo not drawn) [106(trans)],"Methacholine Bronchospasm, ED50",[1],5.0 mg/kg
same,"PCA, ED50",[2],35.5 mg/kg
COc1ccccc1CN1C2=NCCN2C(=O)c2[nH]cnc21 [Procedure 9],"PCA, inactive at dose",[2]; oral dose 10 mg./kg.,I
CC(C)c1nc2c([nH]1)C(=O)N1CCN=C1N2Cc1ccccc1Cl [Procedure 16],"PCA, inactive at dose",[2]; oral dose 25 mg./kg.,I
O=C1c2[nH]cnc2N(CC2CCCCC2)C2=NCCN12 [Procedure 59],inhibition in vivo at 10 mg/kg,[1],45.8%
same,inhibition in vivo at 25 mg/kg,[2]; [8],29%
CCCCn1cnc2c1C(=O)N1CCN=C1N2Cc1ccc(Cl)cc1 [Procedure 24],inhibition in vivo at 10 mg/kg,[1],16%
same,"PCA, inactive at dose",[2]; oral dose 10 mg./kg.,I
Cc1nc2c([nH]1)C(=O)N1CCN=C1N2Cc1ccc(Cl)cc1 [Procedure 15],ED50,[1],1.79 mg/kg
same,inhibition in vivo at 30 mg/kg,"[2]; oral dose 30 mg./kg., read-out: PCA, percent inhibition",40%
Cc1nc2c([nH]1)C(=O)N1CC(C)N=C1N2Cc1ccc(Cl)cc1 (racemic) [Procedure 101],"Methacholine Bronchospasm, ED50",[1],1.00 mg/kg
same,"PCA, ED50",[2],30.2 mg/kg
same,"Allergic Bronchospasm, ED50",[4],1.2 mg/kg
CC1N=C2N(Cc3ccc(Cl)cc3)c3nc[nH]c3C(=O)N2C1C (stereo not drawn) [106(cis)],"Methacholine Bronchospasm, ED50",[1],3.0 mg/kg
same,"PCA, ED50",[2],28.5 mg/kg
O=C1c2[nH]cnc2N(Cc2ccc(F)cc2)C2=NCCN12 [Procedure 8],inhibition in vivo at 10 mg/kg,[1],55.5%
same,inhibition in vivo at 10 mg/kg,[2]; [7],29%
CCCCCCCCN1C2=NCCN2C(=O)c2[nH]cnc21 [Procedure 54],"PCA, inactive at dose",[2]; oral dose 25 mg./kg.,I
CCCCCCCCN1C2=NCCN2C(=O)c2[nH]c(C(C)C)nc21 [Procedure 56],inhibition in vivo at 25 mg/kg,[2]; [8],25%
O=C1c2[nH]cnc2N(Cc2ccccn2)C2=NCCN12 [Procedure 10],inhibition in vivo at 25 mg/kg,[2]; [8],40%
